Laboratory results reported in US20130030172A1, “Methods of Preparing Quinoline Derivatives” (Exelixis, Inc., priority 2008, published 2013).

Assays:
c-Met = c-Met (Homo sapiens, UniProt P08581); experiment: c-Met kinase assay as described in WO 2005/030140 A2; type: biochemical; details: assays described in WO 2005/030140 A2
Description: (§1) Other utilities of this compound are further described in WO 2005/030140 A2.

c-Kit = c-Kit (Homo sapiens, UniProt P10721); experiment: c-Kit kinase assay as described in WO 2005/030140 A2; type: biochemical; details: assays described in WO 2005/030140 A2
Description: as §1

Sequence of c-Kit (P10721 26-976): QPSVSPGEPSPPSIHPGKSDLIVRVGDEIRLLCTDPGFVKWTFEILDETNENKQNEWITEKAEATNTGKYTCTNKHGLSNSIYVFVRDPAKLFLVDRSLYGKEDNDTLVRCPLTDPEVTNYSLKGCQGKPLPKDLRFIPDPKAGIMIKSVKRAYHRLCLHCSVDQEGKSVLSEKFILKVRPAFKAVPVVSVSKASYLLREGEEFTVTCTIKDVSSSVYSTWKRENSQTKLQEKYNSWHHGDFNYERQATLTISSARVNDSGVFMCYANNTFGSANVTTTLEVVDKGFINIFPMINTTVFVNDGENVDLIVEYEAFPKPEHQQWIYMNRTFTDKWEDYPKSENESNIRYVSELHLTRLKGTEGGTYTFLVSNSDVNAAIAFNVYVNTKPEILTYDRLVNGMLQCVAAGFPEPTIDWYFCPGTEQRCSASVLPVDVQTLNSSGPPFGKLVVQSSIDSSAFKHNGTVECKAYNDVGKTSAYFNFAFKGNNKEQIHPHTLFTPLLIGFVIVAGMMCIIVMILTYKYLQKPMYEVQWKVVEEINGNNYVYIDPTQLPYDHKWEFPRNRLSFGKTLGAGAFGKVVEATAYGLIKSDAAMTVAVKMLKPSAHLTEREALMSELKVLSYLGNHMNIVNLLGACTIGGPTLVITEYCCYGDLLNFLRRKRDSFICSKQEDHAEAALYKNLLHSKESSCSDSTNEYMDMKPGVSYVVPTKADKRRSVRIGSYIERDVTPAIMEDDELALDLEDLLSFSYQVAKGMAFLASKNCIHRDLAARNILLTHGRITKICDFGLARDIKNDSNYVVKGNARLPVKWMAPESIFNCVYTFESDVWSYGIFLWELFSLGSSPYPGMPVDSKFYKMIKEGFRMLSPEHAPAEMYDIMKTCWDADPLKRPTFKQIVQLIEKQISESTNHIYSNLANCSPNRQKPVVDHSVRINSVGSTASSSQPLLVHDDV
Sequence of c-Met (P08581 25-1390): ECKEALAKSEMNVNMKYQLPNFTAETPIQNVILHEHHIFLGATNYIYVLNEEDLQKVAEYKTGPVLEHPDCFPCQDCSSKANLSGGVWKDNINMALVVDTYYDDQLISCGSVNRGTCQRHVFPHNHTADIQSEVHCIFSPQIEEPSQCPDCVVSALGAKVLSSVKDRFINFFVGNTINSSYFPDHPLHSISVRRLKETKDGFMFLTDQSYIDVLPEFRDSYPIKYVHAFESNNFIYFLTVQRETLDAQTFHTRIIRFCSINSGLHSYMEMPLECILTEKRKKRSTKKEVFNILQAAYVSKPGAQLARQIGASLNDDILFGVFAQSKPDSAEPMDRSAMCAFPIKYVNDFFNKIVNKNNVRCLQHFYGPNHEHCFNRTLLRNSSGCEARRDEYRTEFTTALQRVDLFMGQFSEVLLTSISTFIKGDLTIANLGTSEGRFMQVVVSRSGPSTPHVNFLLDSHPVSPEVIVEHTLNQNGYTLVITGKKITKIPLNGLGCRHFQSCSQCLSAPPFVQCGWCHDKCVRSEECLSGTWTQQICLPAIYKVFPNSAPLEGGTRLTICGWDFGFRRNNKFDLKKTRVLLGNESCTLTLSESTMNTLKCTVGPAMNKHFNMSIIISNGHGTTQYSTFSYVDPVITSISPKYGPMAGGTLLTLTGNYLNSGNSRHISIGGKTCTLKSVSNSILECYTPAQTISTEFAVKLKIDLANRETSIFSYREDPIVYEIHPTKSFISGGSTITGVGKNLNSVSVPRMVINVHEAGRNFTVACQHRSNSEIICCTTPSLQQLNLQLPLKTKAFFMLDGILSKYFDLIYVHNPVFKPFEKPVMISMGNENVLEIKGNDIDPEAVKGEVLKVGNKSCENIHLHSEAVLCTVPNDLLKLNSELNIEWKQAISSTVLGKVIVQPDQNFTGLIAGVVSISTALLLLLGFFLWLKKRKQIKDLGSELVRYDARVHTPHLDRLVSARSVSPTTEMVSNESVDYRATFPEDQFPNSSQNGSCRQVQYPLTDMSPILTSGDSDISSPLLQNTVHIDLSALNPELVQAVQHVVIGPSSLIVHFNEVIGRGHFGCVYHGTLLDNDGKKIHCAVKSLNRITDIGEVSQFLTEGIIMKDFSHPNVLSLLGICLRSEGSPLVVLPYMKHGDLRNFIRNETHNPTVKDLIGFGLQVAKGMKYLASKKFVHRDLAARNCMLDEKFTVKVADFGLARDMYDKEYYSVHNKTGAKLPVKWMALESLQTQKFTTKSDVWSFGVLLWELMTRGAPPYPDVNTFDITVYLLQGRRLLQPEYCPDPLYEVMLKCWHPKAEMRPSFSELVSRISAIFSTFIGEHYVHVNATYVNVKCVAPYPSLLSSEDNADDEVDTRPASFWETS

Compound: COc1cc2c(Oc3ccc(NC(=O)C(=O)NCCc4ccccc4)cc3F)ccnc2cc1OCCCN1CCOCC1 [title compound, N-{3-Fluoro-4-[6-methoxy-7-(3-morpholin-4-yl-propoxy)-quinolin-4-yloxy]-phenyl}-N′-phenethyl-oxalamide]
- IC50 (c-Met): < 50 nM
- IC50 (c-Kit): < 50 nM
